Source: patent publication US11643436B2, “Polypeptide compound, pharmaceutical composition, preparation method and application thereof” (CHENGDU SINTANOVO BIOTECHNOLOGY CO., LTD., priority 2019, dated 2023)
Where two headings read alike, the source gives them in different places.

Experiments:
[1] = target: human μ-opioid receptor (Homo sapiens (Human), UniProt P35372); test: Forskolin-stimulated cAMP inhibition in HEK293 cells, μ-opioid receptor; format: cell-based; details: HEK293 cells highly expressing human μ-opioid receptor, read-out: MOR (EC50)
Method: (§1) Forskolin can stimulate the release of cAMP from HEK293 cells with high expression of human κ (or μ, or δ)-opioid receptors. […] The efficacy of the compounds of the invention as κ-opioid receptor agonists was determined by measuring the ability of the compounds of Examples to inhibit adenylate cyclase activity.
(§2) Cell culture: The HEK293 cell line highly expressing human κ (or μ, or δ)-opioid receptor were cultured in DMEM medium containing 10% FBS.
(§3) Stimulation: the test compound was 4-fold diluted in a gradient manner to obtain 10 concentrations, and 50 nl of each was transferred to a 384-well plate, and then 10 nl Forskolin was added; the cells were digested, re-suspended, and counted; and then 10 μl of cell suspension (5×10^5 cell/mL) was added, and the cells were mixed gently, and incubated at 23° C. for 60 minutes.
(§4) Detection: cAMP Assay Kit (Cisbio) was used, cAMPD2 and Anti-cAMP conjugate were added, and the resultant mixture was incubated for 1 h at room temperature. The plate was read using envision (Perkin Elmer) and EC50 was obtained by means of fitting with a four-parameter equation.

[2] = target: human κ-opioid receptor (Homo sapiens (Human), UniProt P41145); test: Forskolin-stimulated cAMP inhibition in HEK293 cells, κ-opioid receptor agonism; format: cell-based; details: HEK293 cells highly expressing human κ-opioid receptor, read-out: KOR (EC50)
Method: as §1, §2, §3, §4

[3] = target: human δ-opioid receptor (Homo sapiens (Human), UniProt P41143); test: Forskolin-stimulated cAMP inhibition in HEK293 cells, δ-opioid receptor; format: cell-based; details: HEK293 cells highly expressing human δ-opioid receptor, read-out: DOR (EC50)
human δ-opioid receptor, sequence (P41143 whole entry, looked up): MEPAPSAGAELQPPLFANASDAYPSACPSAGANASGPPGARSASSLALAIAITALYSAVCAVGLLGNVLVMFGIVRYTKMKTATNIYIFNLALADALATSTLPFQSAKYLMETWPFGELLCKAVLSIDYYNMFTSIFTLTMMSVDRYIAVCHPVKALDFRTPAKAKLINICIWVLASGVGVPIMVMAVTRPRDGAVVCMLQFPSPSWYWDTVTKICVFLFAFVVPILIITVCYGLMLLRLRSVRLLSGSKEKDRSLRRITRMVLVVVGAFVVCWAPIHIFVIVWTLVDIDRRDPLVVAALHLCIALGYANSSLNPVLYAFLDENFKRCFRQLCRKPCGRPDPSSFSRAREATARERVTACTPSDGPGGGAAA
Method: as §1, §2, §3, §4

[4] = system: ICR male mice; test: Acetic acid writhing test in mice; format: in vivo; details: IV administration 15 minutes before 0.6% acetic acid i.p.; writhes within 15 min
Method: The analgesic effect of the compound of the invention was evaluated by measuring the analgesic ED50 of the compounds of Examples in the acetic acid writhing test in mice.
The ICR male mice (18-25 g) were randomly separated into the drug group and the model group. 15 minutes after IV administration, 0.6% (v/v) acetic acid solution was intraperitoneally injected at 10 mL/kg. The number of writhes of the mice within 15 min was counted. The inhibition rate on the writhes was calculated based on the number of writhes. The ED50 of the compound to be tested was calculated based on inhibition rate according to a four-parameter equation.

[5] = Caco-2 membrane permeability assay; format: in vitro ADME; details: human, Caco-2, A-B direction, pH 7.4, 37° C.
Method: The Caco-2 cell line is a human colon adenocarcinoma cell line that differentiates in culture and is used to model the epithelial lining of the human small intestine. Compounds of the present invention were tested in a membrane permeability assay using Caco-2 cell membrane layer in a standard assay. The apparent permeability coefficient (Papp) can be determined in the apical-to-basolateral (A-B) direction across cell monolayers cultured on 96-well polycarbonate membrane filters. The compound was maintained at pH 7.4 on the […] at a concentration of 5 μM, and the test plate was gently shaken and incubated at 37° C. for 120 minutes. Samples were taken at time zero from the donor side and at the end of the incubation period from both the donor and acceptor sides. Samples were analyzed by HPLC-MS/MS. The Papp value (expressed as […]) was then calculated based on the appearance rate of compound on the recipient side. Papp can be calculated by the following equation: Papp=(VA×[drug]acceptor)/(Area×Time×[drug]initial, donor) wherein Papp is the apparent permeability; VA is the volume of the acceptor side, Area is the surface area of the membrane, [drug]initial, donor is the concentration on the donor side at time zero, [drug]acceptor is the concentration of the compounds on the recipient side at the end of the incubation period, Time is the total incubation time.

[6] = target: cytochrome P450 CYP 1A2 (Homo sapiens (Human), UniProt P05177); test: Inhibition of cytochrome P450 in human liver microsomes, CYP 1A2; format: in vitro ADME
cytochrome P450 CYP 1A2, sequence (P05177 whole entry): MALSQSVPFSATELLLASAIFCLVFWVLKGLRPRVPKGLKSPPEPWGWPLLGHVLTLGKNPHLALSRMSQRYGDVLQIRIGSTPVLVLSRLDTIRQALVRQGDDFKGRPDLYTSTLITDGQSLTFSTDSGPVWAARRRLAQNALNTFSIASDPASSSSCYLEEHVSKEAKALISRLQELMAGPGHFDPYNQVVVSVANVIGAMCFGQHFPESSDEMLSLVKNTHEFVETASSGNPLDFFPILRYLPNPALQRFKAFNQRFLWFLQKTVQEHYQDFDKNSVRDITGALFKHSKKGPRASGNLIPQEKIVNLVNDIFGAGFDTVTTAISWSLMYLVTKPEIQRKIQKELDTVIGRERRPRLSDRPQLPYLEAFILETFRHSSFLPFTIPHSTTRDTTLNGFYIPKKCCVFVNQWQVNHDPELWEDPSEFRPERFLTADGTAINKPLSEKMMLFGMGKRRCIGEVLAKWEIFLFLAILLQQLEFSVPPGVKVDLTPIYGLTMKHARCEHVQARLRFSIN
Method: (§5) The human liver microsomes (0.253 mg/mL protein) containing cytochrome P450, test compounds (0.05-50 μM), CYPs substrates (10 μM […], 5 μM diclofenac, 30 μM mephenytoin, 5 μM dextromethorphan hydrobromide, 2 μM midazolam), 1.0 mM NADP were incubated at 37° C. for 10 minutes. Naflavone, sulfafenpyrazole, N-3-benzylnivan, quinidine, and ketoconazole were used as reference inhibitors.

[7] = target: cytochrome P450 CYP 2C19 (Homo sapiens (Human), UniProt P33261); test: Inhibition of cytochrome P450 in human liver microsomes, CYP 2C19; format: in vitro ADME
cytochrome P450 CYP 2C19, sequence (P33261 whole entry): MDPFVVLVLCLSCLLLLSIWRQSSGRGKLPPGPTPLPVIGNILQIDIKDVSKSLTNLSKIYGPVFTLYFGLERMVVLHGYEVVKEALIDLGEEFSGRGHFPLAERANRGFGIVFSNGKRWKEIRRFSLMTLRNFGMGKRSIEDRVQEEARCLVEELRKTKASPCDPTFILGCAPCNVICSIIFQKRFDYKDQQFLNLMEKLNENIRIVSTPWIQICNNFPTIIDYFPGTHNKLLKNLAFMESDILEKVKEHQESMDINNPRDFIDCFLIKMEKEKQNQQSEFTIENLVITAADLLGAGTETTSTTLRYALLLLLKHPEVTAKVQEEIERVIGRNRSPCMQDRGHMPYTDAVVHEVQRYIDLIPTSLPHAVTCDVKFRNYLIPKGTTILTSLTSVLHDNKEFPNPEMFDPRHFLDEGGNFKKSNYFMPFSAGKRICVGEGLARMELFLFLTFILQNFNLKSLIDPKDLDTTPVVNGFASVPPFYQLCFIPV
Method: as §5

[8] = target: cytochrome P450 CYP 3A4 (Homo sapiens (Human), UniProt P08684); test: Inhibition of cytochrome P450 in human liver microsomes, CYP 3A4; format: in vitro ADME
cytochrome P450 CYP 3A4, sequence (P08684 whole entry): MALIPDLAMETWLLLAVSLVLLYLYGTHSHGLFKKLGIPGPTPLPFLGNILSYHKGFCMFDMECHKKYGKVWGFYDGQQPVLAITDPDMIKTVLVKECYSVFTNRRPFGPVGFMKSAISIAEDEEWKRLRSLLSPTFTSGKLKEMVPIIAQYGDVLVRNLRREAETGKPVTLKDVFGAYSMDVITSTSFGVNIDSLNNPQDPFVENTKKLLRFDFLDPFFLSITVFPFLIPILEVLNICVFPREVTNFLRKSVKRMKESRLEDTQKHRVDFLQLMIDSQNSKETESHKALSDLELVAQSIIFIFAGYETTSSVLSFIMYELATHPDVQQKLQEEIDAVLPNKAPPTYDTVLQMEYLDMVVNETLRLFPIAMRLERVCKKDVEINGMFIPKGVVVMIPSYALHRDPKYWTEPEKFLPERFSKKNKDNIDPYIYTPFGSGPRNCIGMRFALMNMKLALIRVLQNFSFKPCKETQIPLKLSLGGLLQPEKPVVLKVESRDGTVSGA
Method: as §5

[9] = target: cytochrome P450 CYP 2C9 (Homo sapiens (Human), UniProt P11712); test: Inhibition of cytochrome P450 in human liver microsomes, CYP 2C9; format: in vitro ADME
cytochrome P450 CYP 2C9, sequence (P11712 whole entry): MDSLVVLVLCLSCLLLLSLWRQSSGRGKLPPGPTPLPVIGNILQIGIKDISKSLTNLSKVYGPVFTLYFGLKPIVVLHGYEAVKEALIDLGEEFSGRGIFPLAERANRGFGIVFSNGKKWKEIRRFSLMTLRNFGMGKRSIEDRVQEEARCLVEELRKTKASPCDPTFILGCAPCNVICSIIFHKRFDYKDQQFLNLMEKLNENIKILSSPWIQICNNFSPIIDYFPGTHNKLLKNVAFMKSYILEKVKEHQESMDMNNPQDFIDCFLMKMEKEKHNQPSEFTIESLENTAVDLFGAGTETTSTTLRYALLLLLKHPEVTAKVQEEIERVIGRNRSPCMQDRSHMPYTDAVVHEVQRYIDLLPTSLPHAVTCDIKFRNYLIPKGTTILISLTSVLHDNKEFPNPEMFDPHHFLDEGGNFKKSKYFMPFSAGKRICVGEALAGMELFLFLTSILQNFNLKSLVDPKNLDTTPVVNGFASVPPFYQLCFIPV
Method: as §5

[10] = target: cytochrome P450 CYP 2D6 (Homo sapiens (Human), UniProt P10635); test: Inhibition of cytochrome P450 in human liver microsomes, CYP 2D6; format: in vitro ADME
cytochrome P450 CYP 2D6, sequence (P10635 whole entry): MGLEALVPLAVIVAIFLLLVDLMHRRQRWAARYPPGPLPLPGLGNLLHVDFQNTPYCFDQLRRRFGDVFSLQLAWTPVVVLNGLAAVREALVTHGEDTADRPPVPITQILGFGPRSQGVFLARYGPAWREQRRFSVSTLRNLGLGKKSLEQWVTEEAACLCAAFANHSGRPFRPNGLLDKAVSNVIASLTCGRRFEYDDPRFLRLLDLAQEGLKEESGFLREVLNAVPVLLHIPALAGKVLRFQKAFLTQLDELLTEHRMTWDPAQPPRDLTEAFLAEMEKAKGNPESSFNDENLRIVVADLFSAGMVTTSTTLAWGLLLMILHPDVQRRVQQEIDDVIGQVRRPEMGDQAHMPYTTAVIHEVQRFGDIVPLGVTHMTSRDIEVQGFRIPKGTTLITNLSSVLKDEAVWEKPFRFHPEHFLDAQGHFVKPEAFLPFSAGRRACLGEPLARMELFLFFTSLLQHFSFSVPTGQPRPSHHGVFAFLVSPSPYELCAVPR
Method: as §5

Compound: CC(C)C[C@@H](NC(=O)[C@@H](Cc1ccccc1)NC(=O)[C@H](N)Cc1ccccc1)C(=O)N[C@H](CCCCN)C(=O)N1CCC(B(O)O)CC1 [TM-1]
- EC50 [1]: > 10 µM
- EC50 [2]: 98.4 pM
- EC50 [3]: > 10 µM

Compound: CC(C)C[C@@H](NC(=O)[C@@H](Cc1ccccc1)NC(=O)[C@H](N)Cc1ccccc1)C(=O)N[C@H](CCCCN)C(=O)N1CC[C@@H](B(O)O)C1 [TM-2A, (R)-1-(D-Phe-D-Phe-D-Leu-D-Lys)-3-pyrrolidineboronic acid]
- EC50 [1]: > 10 µM
- ED50 [4]: 0.679 µg/kg
- Papp A→B at 120 min, 5 μM [5]: < 0.05 ×10⁻⁶ cm/s
- EC50 [2]: 33.1 pM
- EC50 [3]: > 10 µM

Compound: CC(C)C[C@@H](NC(=O)[C@@H](Cc1ccccc1)NC(=O)[C@H](N)Cc1ccccc1)C(=O)N[C@H](CCCCN)C(=O)N1CC=C(B(O)O)C1 [TM-3]
- EC50 [1]: > 10 µM
- Papp A→B at 120 min, 5 μM [5]: < 0.2 ×10⁻⁶ cm/s
- EC50 [2]: 54.7 pM
- EC50 [3]: > 10 µM

Compound: CC(C)C[C@@H](NC(=O)[C@@H](Cc1ccccc1)NC(=O)[C@H](N)Cc1ccccc1)C(=O)N[C@H](CCCCN)C(=O)N1CCC=C(B(O)O)C1 [TM-5]
- EC50 [1]: > 10 µM
- EC50 [2]: 27 pM
- EC50 [3]: > 10 µM

Compound: CC(C)C[C@@H](NC(=O)[C@@H](Cc1ccccc1)NC(=O)[C@H](N)Cc1ccccc1)C(=O)N[C@H](CCCCN)C(=O)N1CCC2(CC1)CC(B(O)O)C2 [TM-7]
- EC50 [1]: > 10 µM
- EC50 [2]: 8.7 pM
- EC50 [3]: > 10 µM

Compound: CC(C)C[C@@H](NC(=O)[C@@H](Cc1ccccc1)NC(=O)[C@H](N)Cc1ccccc1)C(=O)N[C@H](CCCCN)C(=O)N1CCC(N)(B(O)O)CC1 [TM-8]
- EC50 [1]: > 10 µM
- Papp A→B at 120 min, 5 μM [5]: < 0.1 ×10⁻⁶ cm/s
- EC50 [2]: 84.6 pM
- EC50 [3]: > 10 µM

Compound: CC(C)C[C@@H](NC(=O)[C@@H](Cc1ccccc1)NC(=O)[C@H](N)Cc1ccccc1)C(=O)N[C@H](CCCCN)C(=O)N1CCC[C@H]1B(O)O [TM-9A, (R)-1-(D-Phe-D-Phe-D-Leu-D-Lys)-2-pyrrolidineboronic acid]
- EC50 [1]: > 10 µM
- ED50 [4]: 0.377 µg/kg
- Papp A→B at 120 min, 5 μM [5]: < 0.05 ×10⁻⁶ cm/s
- EC50 [3]: > 10 µM

Compound: CC(C)C[C@@H](NC(=O)[C@@H](Cc1ccccc1)NC(=O)[C@H](N)Cc1ccccc1)C(=O)N[C@H](CCCCN)C(=O)N1CCCC[C@H]1B(O)O [TM-13A, (R)-1-(D-Phe-D-Phe-D-Leu-D-Lys)-2-piperidine boronic acid]
- EC50 [1]: > 10 µM
- EC50 [2]: 94.6 pM
- EC50 [3]: > 10 µM

Compound: COCCOCCNCCCC[C@@H](NC(=O)[C@@H](CC(C)C)NC(=O)[C@@H](Cc1ccccc1)NC(=O)[C@H](N)Cc1ccccc1)C(=O)N1CC[C@H](B(O)O)C1 [TM-22B, (S)-1-(N2-D-Phe-D-Phe-D-Leu-N6-(2-(2-methoxyethoxy)ethyl)-D-Lys)-3-pyrrolidineboronic acid]
- EC50 [1]: > 10 µM
- IC50 [6]: > 50 µM
- IC50 [7]: > 50 µM
- IC50 [8]: > 50 µM
- Papp A→B at 120 min, 5 μM [5]: < 0.1 ×10⁻⁶ cm/s
- IC50 [9]: > 50 µM
- EC50 [2]: 9.5 pM
- EC50 [3]: > 10 µM
- IC50 [10]: > 50 µM

Compound: CC(C)C[C@@H](NC(=O)[C@@H](Cc1ccccc1)NC(=O)[C@H](N)Cc1ccccc1)C(=O)N[C@H](CCCCN)C(=O)NCCB(O)O [TM-26]
- IC50 ([6]; microsomes): > 50 µM
- IC50 ([7]; microsomes): > 50 µM
- IC50 ([8]; microsomes): > 50 µM
- Papp A→B at 120 min, 5 μM [5]: < 0.1 ×10⁻⁶ cm/s
- IC50 ([9]; microsomes): > 50 µM
- IC50 ([10]; microsomes): > 50 µM
